The inhibition is the change of the read-out against control, counted positive when it falls.

Consider 5 compounds from patent publication US9962420B2, “Compositions and methods for treating diabetes, fatty liver, cardiopathies, insulin resistance, carbohydrate and fat metabolism” (VALBIOTIS, priority 2014, dated 2018).

For data set [1], the target named is T1, HMG-CoA reductase (Catalytic domain of the human enzyme, recombinant GST fusion protein expressed in E. Coli) (Homo sapiens, UniProt P04035).
T1 construct: (Catalytic domain of); GST; purchased Sigma
T1 sequence (P04035 340-888 limits assumed): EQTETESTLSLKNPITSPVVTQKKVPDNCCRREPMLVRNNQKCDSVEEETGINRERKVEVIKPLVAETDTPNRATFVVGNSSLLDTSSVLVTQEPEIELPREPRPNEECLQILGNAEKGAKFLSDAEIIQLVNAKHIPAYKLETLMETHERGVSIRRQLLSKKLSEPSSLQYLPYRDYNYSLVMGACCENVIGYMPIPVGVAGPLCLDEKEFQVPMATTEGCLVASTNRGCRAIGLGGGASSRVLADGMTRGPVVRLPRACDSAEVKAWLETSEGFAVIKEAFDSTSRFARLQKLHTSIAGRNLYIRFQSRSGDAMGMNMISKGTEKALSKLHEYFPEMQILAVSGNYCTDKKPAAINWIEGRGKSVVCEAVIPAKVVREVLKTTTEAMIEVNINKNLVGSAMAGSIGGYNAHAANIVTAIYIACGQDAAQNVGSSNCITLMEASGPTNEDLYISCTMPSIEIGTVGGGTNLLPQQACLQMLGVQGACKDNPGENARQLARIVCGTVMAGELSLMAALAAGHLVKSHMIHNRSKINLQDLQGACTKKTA
The data set is described as follows: Test of inhibition of HMG-CoA reductase. The settings on record: concentration of sample set at 60 μg/mL. The data set is classed as biochemical.
Description: The molecules were diluted either in 90/10 (v/v) ultra-pure water/DMSO or in 50/50 (v/v) ultra-pure water/ethanol.
The reaction mechanism is as follows: HMG-CoA+2NADPH+2H^+ ? mevalonate+2NADP^++CoA-SH
Disappearance of the substrate NADPH (absorbing at 340 nm) is thus monitored over time.
In a first stage, the solutions need to be prepared from the Sigma® kit: • the 5× buffer supplied must be diluted to a concentration of 1× in ultra-pure water; • the NADPH is dissolved by adding 1× buffer, and then distributed in 100 μL tubes; • the starting enzyme solution is distributed in 25 μL aliquots.
The manipulations were performed directly in 96-well microplates (NUNC96 or [sequence]96). […]
After preparing the plate, the kinetic monitoring was performed in a microplate reader (BMG Labtech) over 16 minutes, 25 seconds, with values taken every 25 seconds at λ=340 nm, i.e. a total of 40 cycles. From this, the percentages of inhibition could be calculated.
In general, irrespective of the test, for a given concentration of an inhibitor, a curve of equation: absorbance=f(time) (in minutes) was prepared. […]
Depending on the types of tests, the percentages of inhibition of the various enzymes were calculated via various methods: • for the tests for inhibition of HMG-CoA reductase and of α-glucosidases, the calculation formula is identical: […]

The test system of data set [2] is db/db mice. In words: Oral test of carbohydrate tolerance, starch force-feeding (Tests A). The settings on record: Colby method. The data set is classed as in vivo. The procedure:
The experiments were performed on db/db mice. db/db mice have a mutation of the leptin receptors inducing a cell signaling dysfunction of the latter. The leptin receptors are highly expressed in the hypothalamus. Mice having a mutation of these receptors cannot efficiently regulate their energy stores. […] These mice are insulin resistant, hypertriglyceridemic and glucose-intolerant. They constitute a pertinent and predictive model especially for studying insulin sensitivity, triglyceridemia, type 2 diabetes and one of its complications, non-alcoholic steatohepatitis (NASH) (Aileen J F King Br J Pharmacol 2012; 166(3):877-894; Sanches S C et al. Biomed Res Int 2015).
The experimental time was nine weeks with a “run-in” of one week followed by eight weeks of supplementation with the plant extracts and a composition X. The male mice were ten weeks old at the start of the treatment.
Nine compositions X were tested. […]
The experimental evaluations focused especially on: • Measurement of the body mass; • Measurement of the fasting glycemia; • The change in glycemia during an oral test of carbohydrate tolerance. After force-feeding with starch (3 g/kg) in the fasted state, the change in glycemia in response to starch was measured in the tail by biopsy just before the force-feeding (t0) and then after 30, 60, 90 and 120 minutes. The area under the curve (AUC) was calculated. […]

Data set [3] relates to db/db mice. In words: Body mass (Tests A). The data set is classed as in vivo. The settings on record: after eight weeks in feed.
Description: (§3) The experiments were performed on db/db mice. db/db mice have a mutation of the leptin receptors inducing a cell signaling dysfunction of the latter. […] These mice are insulin resistant, hypertriglyceridemic and glucose-intolerant.
(§4) The evaluations presented were performed just before the supplementation (t=0) and at the end of supplementation (t=8 weeks).
For data set [4], the system named is db/db mice. The data set is described as follows: Fasting glycemia (Tests A). The data set is classed as in vivo. The settings on record: Colby method.
Description: as §3, §4
For data set [5] the following is noted: p<0.01; cited from earlier work.
The test system of data set [6] is db/db mice. Conditions: highest dose, same model of db/db mice and similar experimental design; cited from earlier work.
Data set [7] relates to db/db mice. The data set is described as follows: Body mass, fat mass and lean mass by MRI (Tests B). The data set is classed as in vivo. Conditions: six weeks in feed, mean ± SEM. From the text:
(§1) Using this predictive model of diabetic mice and incorporating composition C10 directly into the rodents' feed (1% Chrysanthellum indicum, 1% Cynara scolymus, 0.1% Vaccinium myrtillus, 0.001% Piper nigrum and 0.6% Olea europaea of the feed), this makes it possible to ensure its “multi-target” efficacy and its large-scale use, since intravenous or intraperitoneal injections are limited to a small number of people, given their mode of administration.
(§2) The experimental time was seven weeks with a “run-in” of one week followed by six weeks of supplementation with composition C10. The male mice were six weeks old at the start of the treatment. The evaluations were made just before the supplementation (t=0), weekly for certain parameters, and at the end of supplementation (t=6 weeks). […]

Data set [8] deals with db/db mice. The data set is described as follows: Glycated hemoglobin HbA1c (Tests B). The data set is classed as in vivo. The settings on record: six weeks in feed, mean ± SEM.
Description: as §1, §2

Data set [9] has as its system db/db mice. The data set is described as follows: Fasting glycemia (Tests B). The data set is classed as in vivo. Conditions: six weeks in feed, mean ± SEM.
Description: as §1, §2

Data set [10] concerns db/db mice. The data set is described as follows: Hepatic and serum triglycerides, serum HDL cholesterol (Tests B). The data set is classed as in vivo. The settings on record: six weeks in feed, mean ± SEM. From the text:
The experimental time was seven weeks with a “run-in” of one week followed by six weeks of supplementation with composition C10. The male mice were six weeks old at the start of the treatment. The evaluations were made just before the supplementation (t=0), weekly for certain parameters, and at the end of supplementation (t=6 weeks).
The experimental evaluations related especially to: • Measurement of the feed intake (t1, t2, t3, t4 and t5 weeks); • Measurement of the body mass (t0, t1, t2, t3, t4, t5, t6 weeks); • Measurement of the fat mass and lean mass by MRI (magnetic resonance imaging; t0 and t6 weeks); • Measurement of the fasting glycemia (t0, t1, t2, t3, t4, t5, t6 weeks); • Measurement of the glycated hemoglobin (HbA1c; t6 weeks); • The insulin sensitivity (test identical to that performed in Tests A; t0 and t6 weeks); • The carbohydrate tolerance (test identical to that performed in Tests A; t0 and t6 weeks); • Measurement of the hepatic and serum triglycerides (t6 weeks); • Measurement of the serum HDL cholesterol (t6 weeks).

In data set [11] the test system is db/db mice. The data set is described as follows: Insulin sensitivity test (Tests B). Type of data set: in vivo. Conditions: six weeks in feed, mean ± SEM. On the procedure: For compositions C7 to C9, an insulin sensitivity test was also performed. […] The change in glycemia in response to the insulin injection was measured in the tail by biopsy just before the injection (t0) and then after 30, 60, 90 and 120 minutes. The area under the curve (AUC) was calculated. A decrease in the AUC reflects a better response to the insulin injection and thus an improvement in the insulin sensitivity. Conversely, an increase in the AUC reflects poorer insulin sensitivity and thus insulin resistance.
as §1, §2

Read-outs that look alike come from different tables or passages of the source.

For `CC[C@H](C)C(=O)O[C@H]1C[C@H](O)C=C2C=C[C@H](C)[C@H](CC[C@@H](O)C[C@@H](O)CC(=O)O)[C@H]21` [Pravastatin], in [1], the “% of inhibition HMG-CoA reductase” value is on record as 100% and the inhibition at 60 µg/mL stood at 100%.
As for `O=C(/C=C/C=C/c1ccc2c(c1)OCO2)N1CCCCC1` [Composition C5, piperine], in the data set with db/db mice [2], the “Observed degree of efficacy (in % of the control group), oral test of carbohydrate tolerance, AUC (week 8 − week 0)” value is listed as −82.3%. For the same compound, the “Body mass (mean ± SEM)” value with db/db mice [3] is recorded as 32.7 ± 1.5 g. Further, the “Observed degree of efficacy (in % of the control group), fasting glycemia after eight weeks of treatment” value in the data set with db/db mice [4] is given as −13.3%.
As for `CC[C@H]1[C@@H](O)[C@@H]2[C@H](CC[C@]3(C)[C@@H]([C@H](C)CCC(=O)O)CC[C@@H]23)[C@@]2(C)CC[C@@H](O)C[C@@H]12` [OCA, obeticholic acid], the “Reduction of circulating HDL cholesterol” value in [5] was -0.2 g/L.
Consider `CSc1ccc(C(=O)/C=C/c2cc(C)c(OC(C)(C)C(=O)O)c(C)c2)cc1` [GFT 505, Elafibranor], for which, in the data set on db/db mice [6], the HbA1c is 6%.
Compound `CN(C)C(=N)N=C(N)N` [Metformin, metformin] showed a Body mass with db/db mice [7] of 40.8 ± 2.1 g. For the same compound, the HbA1c with db/db mice [8] turned out to be 7.59 ± 0.24%. Also, the Fasting glycemia with db/db mice [9] is reported as 474 ± 24 mg/dL. In addition, in the data set on db/db mice [10], the Serum triglycerides was 256.23 ± 28.19 mg/dL. The HDL cholesterol in the data set on db/db mice [10] (serum) stood at 99.21 ± 6.03 mg/dL. Moreover, the “Area under the curve measured during an test of insulin sensitivity (AUC)” value with db/db mice [11] was determined as 32778 ± 3166 mg·min/dL.
